{"source": "paper PMC3566779", "about": "(The Journal of neuroscience : the official journal of the …, 2012)", "key": {"[1]": {"tested_on": "Wistar rats", "settings": "TRPV1 antagonist; ref Garami et al., 2010; Steiner et al., 2007; cited from earlier work"}, "[2]": {"biological_target": "TRPV1 (Homo sapiens, UniProt Q8NER1)", "sequence (Q8NER1 whole entry, species assumed)": "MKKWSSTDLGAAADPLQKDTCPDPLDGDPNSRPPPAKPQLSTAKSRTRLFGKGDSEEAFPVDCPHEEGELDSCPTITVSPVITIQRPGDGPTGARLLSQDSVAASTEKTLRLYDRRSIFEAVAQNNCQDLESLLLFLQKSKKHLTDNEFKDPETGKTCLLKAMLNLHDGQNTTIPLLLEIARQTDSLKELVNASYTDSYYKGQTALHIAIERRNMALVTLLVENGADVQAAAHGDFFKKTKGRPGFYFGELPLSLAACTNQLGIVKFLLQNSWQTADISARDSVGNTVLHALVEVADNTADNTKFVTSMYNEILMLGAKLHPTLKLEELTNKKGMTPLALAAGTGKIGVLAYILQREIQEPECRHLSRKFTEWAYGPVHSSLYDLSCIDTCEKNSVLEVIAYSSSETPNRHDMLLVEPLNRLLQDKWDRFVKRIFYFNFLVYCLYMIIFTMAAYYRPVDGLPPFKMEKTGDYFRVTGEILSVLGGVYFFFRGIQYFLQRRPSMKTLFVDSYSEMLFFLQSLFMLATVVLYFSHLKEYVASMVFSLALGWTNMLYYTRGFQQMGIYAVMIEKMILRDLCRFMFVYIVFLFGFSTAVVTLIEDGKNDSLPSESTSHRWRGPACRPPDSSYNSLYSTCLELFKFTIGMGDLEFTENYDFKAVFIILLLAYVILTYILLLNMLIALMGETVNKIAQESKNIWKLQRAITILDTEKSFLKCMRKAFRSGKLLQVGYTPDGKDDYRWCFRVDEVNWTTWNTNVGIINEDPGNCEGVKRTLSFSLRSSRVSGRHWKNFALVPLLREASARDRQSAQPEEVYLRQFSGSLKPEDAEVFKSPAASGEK", "experiment": "TRPV1 assay, capsaicin activation", "type": "cell-based"}, "[3]": {"tested_on": "c-Fos expression in the lateral parabrachial nucleus", "experiment": "Cold-induced c-Fos immunohistochemistry in the lateral parabrachial nucleus", "type": "in vivo, rat", "settings": "rats, 6 mg/kg i.v. pretreatment, 2-h cold exposure (4°C)"}, "[4]": {"tested_on": "native TRPM8 channels in murine primary sensory neurons", "experiment": "Ratiometric Ca2+ imaging of trigeminal or dorsal root ganglion neurons", "type": "cell-based, mouse"}, "[5]": {"tested_on": "Wistar rats", "experiment": "Colonic Tb and oxygen consumption in rats, respirometry setup", "type": "in vivo, rat", "settings": "6 mg/kg i.v. over 20 min, Ta 19°C"}, "[6]": {"tested_on": "Trpm8+/+ mice", "experiment": "Abdominal Tb in Trpm8+/+ mice, telemetry setup", "type": "in vivo, mouse", "settings": "Ta 26°C"}, "[7]": {"tested_on": "Wistar rats", "experiment": "Preferred Ta and abdominal Tb in rats, thermogradient setup", "type": "in vivo, rat"}, "[8]": {"tested_on": "other TRP channels", "experiment": "TRP selectivity assays in CHO cells", "type": "cell-based", "settings": "read-out: IC50, block of other TRP channels"}, "[9]": {"tested_on": "Wistar rats", "experiment": "BAT thermometry", "type": "in vivo, rat", "settings": "1 mg/kg i.v. at 32°C"}, "[10]": {"tested_on": "Trpm8−/− mice", "experiment": "Abdominal Tb in Trpm8−/− mice, telemetry setup", "type": "in vivo, mouse", "settings": "Ta 26°C"}, "[11]": {"tested_on": "Wistar rats", "experiment": "Deep", "type": "in vivo, rat"}, "[12]": {"biological_target": "rat TRPM8 (Rattus norvegicus, UniProt Q8R455)", "sequence (Q8R455 whole entry)": "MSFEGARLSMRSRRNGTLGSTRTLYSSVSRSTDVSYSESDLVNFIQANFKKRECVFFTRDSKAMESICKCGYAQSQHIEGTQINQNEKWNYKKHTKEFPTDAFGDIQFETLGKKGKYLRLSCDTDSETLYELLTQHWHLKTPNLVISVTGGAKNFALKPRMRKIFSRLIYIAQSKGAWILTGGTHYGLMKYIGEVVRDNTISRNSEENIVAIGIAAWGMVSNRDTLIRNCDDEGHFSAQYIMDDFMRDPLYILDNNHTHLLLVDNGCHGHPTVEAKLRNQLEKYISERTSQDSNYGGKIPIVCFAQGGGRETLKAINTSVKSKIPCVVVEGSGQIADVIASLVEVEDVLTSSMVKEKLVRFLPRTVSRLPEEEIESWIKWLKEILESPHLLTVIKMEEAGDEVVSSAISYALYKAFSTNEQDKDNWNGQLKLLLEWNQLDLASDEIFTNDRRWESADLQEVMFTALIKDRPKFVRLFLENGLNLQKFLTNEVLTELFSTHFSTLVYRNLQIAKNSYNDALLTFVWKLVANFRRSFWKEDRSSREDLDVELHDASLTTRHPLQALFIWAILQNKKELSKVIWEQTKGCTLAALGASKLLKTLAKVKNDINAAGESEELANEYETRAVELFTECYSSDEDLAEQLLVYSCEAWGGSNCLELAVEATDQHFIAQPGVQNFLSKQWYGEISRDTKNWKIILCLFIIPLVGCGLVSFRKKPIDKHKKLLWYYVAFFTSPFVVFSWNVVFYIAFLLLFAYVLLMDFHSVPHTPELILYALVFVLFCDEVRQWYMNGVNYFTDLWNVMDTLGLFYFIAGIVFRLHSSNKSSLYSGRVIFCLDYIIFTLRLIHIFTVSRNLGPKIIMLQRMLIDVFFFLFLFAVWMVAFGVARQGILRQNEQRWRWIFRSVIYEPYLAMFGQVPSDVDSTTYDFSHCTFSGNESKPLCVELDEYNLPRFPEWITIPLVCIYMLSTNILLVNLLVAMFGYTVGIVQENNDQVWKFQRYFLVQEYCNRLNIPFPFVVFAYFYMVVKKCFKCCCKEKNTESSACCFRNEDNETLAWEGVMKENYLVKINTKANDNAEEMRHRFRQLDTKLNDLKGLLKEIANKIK", "experiment": "Aequorin luminescence Ca2+ assay, CHO cells stably expressing rat TRPM8", "type": "cell-based"}, "[13]": {"biological_target": "TRPA1 (Homo sapiens, UniProt O75762)", "sequence (O75762 whole entry, species assumed)": "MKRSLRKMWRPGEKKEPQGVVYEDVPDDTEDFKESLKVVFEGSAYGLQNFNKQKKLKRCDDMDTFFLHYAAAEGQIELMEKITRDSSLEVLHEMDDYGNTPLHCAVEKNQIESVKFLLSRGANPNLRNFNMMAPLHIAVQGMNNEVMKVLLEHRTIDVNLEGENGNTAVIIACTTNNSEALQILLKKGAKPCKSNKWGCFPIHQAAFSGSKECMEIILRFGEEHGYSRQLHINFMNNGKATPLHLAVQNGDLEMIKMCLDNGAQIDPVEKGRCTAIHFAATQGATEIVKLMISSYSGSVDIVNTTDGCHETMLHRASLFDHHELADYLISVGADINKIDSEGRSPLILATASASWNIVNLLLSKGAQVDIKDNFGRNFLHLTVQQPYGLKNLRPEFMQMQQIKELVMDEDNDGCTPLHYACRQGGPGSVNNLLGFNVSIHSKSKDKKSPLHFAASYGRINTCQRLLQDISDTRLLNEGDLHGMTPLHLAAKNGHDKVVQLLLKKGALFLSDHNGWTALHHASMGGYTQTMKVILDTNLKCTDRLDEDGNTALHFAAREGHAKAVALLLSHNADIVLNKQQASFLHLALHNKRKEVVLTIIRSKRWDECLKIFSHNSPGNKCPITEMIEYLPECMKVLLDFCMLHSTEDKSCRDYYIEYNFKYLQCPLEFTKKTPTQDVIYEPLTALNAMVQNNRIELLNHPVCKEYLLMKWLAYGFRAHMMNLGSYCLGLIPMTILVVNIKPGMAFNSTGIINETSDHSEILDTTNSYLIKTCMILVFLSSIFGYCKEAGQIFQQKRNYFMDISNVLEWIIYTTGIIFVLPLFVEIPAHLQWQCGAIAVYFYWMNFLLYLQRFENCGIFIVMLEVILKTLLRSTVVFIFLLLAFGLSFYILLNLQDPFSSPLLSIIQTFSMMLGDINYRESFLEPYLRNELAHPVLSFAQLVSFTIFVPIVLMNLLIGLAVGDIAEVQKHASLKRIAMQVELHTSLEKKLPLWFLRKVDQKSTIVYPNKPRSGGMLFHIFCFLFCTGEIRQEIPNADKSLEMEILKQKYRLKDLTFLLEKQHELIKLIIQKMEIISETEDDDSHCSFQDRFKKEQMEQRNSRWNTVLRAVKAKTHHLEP", "experiment": "TRPA1 aequorin assay, allylisothiocyanate activation", "type": "cell-based", "settings": "read-out: IC50 for TRPA1; 80 μM allylisothiocyanate as agonist"}, "[14]": {"biological_target": "TRPV4 (Homo sapiens, UniProt Q9HBA0)", "sequence (Q9HBA0 whole entry, species assumed)": "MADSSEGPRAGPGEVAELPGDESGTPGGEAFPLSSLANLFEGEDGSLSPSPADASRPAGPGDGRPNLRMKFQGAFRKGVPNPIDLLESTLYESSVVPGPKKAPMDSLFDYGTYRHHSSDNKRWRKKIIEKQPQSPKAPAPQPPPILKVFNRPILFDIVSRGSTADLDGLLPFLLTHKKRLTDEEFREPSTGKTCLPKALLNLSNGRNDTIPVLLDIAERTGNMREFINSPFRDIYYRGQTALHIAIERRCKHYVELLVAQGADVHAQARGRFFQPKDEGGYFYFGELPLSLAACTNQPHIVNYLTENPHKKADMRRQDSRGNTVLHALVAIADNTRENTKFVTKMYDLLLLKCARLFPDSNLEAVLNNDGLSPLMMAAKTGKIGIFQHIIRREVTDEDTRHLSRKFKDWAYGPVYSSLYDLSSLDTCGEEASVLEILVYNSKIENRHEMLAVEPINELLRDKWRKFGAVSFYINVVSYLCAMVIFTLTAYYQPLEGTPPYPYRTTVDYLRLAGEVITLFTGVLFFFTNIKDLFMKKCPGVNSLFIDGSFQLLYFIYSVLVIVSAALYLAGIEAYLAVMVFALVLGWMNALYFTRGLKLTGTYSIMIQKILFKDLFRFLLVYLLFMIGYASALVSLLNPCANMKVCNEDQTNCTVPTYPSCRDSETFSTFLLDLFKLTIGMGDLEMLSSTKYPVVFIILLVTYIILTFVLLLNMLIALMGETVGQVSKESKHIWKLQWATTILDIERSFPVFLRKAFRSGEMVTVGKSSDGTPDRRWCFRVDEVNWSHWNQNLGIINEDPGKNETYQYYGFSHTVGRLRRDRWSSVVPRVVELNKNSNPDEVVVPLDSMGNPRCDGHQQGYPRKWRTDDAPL", "experiment": "TRPV4 aequorin assay, 4α-PDD activation", "type": "cell-based", "settings": "read-out: IC50 for TRPV4; 1 μM 4α-PDD as agonist"}}, "data": [{"smiles": "O=C(/C=C/c1ccc(C(F)(F)F)nc1N1CCCCC1)Nc1cccc2c1CC(O)CC2", "note": "(stereo not drawn) [AMG0347]", "values": [{"measurement": "Thermal response", "setting": "[1]", "value": "cause hyperthermia"}]}, {"smiles": "CC(C)(C)c1ccc(/C=C/C(=O)Nc2ccc3c(c2)OCCO3)cc1", "note": "[AMG9810, (E)-3-(4-t-butylphenyl)-N-(2,3-dihydrobenzo[b][1,4]dioxin-6-yl)acrylamide]", "values": [{"measurement": "IC50", "setting": "[2]", "value": 86, "unit": "nM"}]}, {"smiles": "COc1cc(CN(CCN)C(=O)c2cccs2)ccc1OCc1ccccc1.Cl", "note": "[M8-B, N-(2-aminoethyl)-N-(4-(benzyloxy)-3-methoxybenzyl)thiophene-2-carboxamide hydrochloride]", "values": [{"measurement": "Decrease in number of cold-induced c-Fos-positive neurons, LPBE", "setting": "[3]; p = 0.027", "value": 48, "unit": "%"}, {"measurement": "Decrease in number of cold-induced c-Fos-positive neurons, LPBC", "setting": "[3]; p = 0.178", "value": 41, "unit": "%"}, {"measurement": "Number of cold-responsive neurons", "setting": "[4]; M8-B 10 μM, cold (15°C), 19 ± 3% without treatment", "value": "4 ± 1", "unit": "%"}, {"measurement": "Number of neurons responsive to menthol", "setting": "[4]; menthol 250 μM", "value": "significantly decreased"}, {"measurement": "VO2 within the first hour after infusion", "setting": "[5]; from 19 ml/kg/min", "value": "~15", "unit": "mL/min/kg"}, {"measurement": "Colonic Tb within the first hour after infusion", "setting": "[5]; from ~37.3°C", "value": "~ 36.5 °C"}, {"measurement": "Decrease in abdominal Tb", "setting": "[6]; 6 mg/kg i.p.", "value": "~ 0.8 °C"}, {"measurement": "Effect on hyperthermic response to menthol", "setting": "[7]; rats, M8-B 1 mg/kg i.v. pretreatment, p = 0.0009", "value": "significantly attenuated"}, {"measurement": "Effect on warmth-seeking response to menthol", "setting": "[7]; rats, M8-B 1 mg/kg i.v. pretreatment, p = 0.096", "value": "tended to attenuate"}, {"measurement": "IC50", "setting": "[8]", "value": "> 20000", "unit": "nM"}, {"measurement": "BAT thermogenic response to cold", "setting": "[9]; then 11°C, p = 0.105", "value": "tended to be less pronounced"}, {"measurement": "Nadir of Tb", "setting": "[9]; then transferred to 11°C, at 150 min", "value": "~ 36.2 °C"}, {"measurement": "Effect on abdominal Tb", "setting": "[10]; 6 mg/kg i.p.", "value": "not affected"}, {"measurement": "Heat loss index (HLI) when Tb was 37.5°C", "setting": "[11]; 1 mg/kg i.v. at 32°C then 21°C, controls HLI ~0", "value": "~ 0.4"}, {"measurement": "Inter-treatment Tb difference (M8-B vs vehicle)", "setting": "[11]; 1 mg/kg i.v. at Ta 32°C, then transferred to 11°C", "value": "exceeded 1 °C"}, {"measurement": "Inter-treatment Tb difference (M8-B vs vehicle)", "setting": "[11]; 1 mg/kg i.v. at Ta 32°C, then transferred to 14°C", "value": "exceeded 1 °C"}, {"measurement": "Delay of the development of tail skin vasoconstriction", "setting": "[11]; 1 mg/kg i.v. at Ta 32°C, then transferred to 21°C", "value": "~ 5 min"}, {"measurement": "Effect on Tb", "setting": "[11]; 1 mg/kg i.v. over 40 min at Ta 32°C, then transferred to 21°C", "value": "significant decrease in Tb"}, {"measurement": "Changes in Tb compared to vehicle", "setting": "[11]; 1 mg/kg i.v., constant Ta 15°C", "value": "no significant changes"}, {"measurement": "Effect on Tb", "setting": "[11]; 1 mg/kg i.v., constant Ta 19°C, data not shown", "value": "did not affect Tb"}, {"measurement": "Changes in Tb compared to vehicle", "setting": "[11]; 1 mg/kg i.v., constant Ta 32°C", "value": "no significant changes"}, {"measurement": "Tail Tsk at which M8-B caused a decrease in Tb (threshold, two-line model)", "setting": "[11]; 1 mg/kg i.v., experiments of Fig. 6B–H", "value": "≤ 23.2", "unit": "°C"}, {"measurement": "Effect on Tb", "setting": "[11]; 2.5 mg/kg intracerebroventricularly, Ta 19°C", "value": "no effect"}, {"measurement": "Effect on Tb", "setting": "[11]; 2.5 mg/kg intrathecally, Ta 19°C", "value": "no effect"}, {"measurement": "Decrease in colonic Tb compared to vehicle", "setting": "[11]; 6 mg/kg i.v. over 20 min, Ta 19°C", "value": "~ 0.9 °C"}, {"measurement": "Effect on Tb", "setting": "[11]; 6 mg/kg intrathecally, Ta 19°C", "value": "effective in decreasing Tb"}, {"measurement": "Threshold intravenous dose for a significant decrease in deep Tb", "setting": "[11]; i.v., Ta 19°C", "value": 2.5, "unit": "mg/kg"}, {"measurement": "IC50", "setting": "[12]; IC50, inhibition of rat TRPM8 activation by cold, cold (10°C)", "value": "7.8 ± 1.1", "unit": "nM"}, {"measurement": "IC50", "setting": "[12]; IC50, inhibition of rat TRPM8 activation by icilin, icilin (1 μM)", "value": "26.9 ± 12.1", "unit": "nM"}]}, {"smiles": "C=C(C)[C@]12C[C@@H](C)[C@@]34O[C@](Cc5ccccc5)(O[C@@H]1[C@@H]3C=C(COC(=O)Cc1ccc(O)c(OC)c1)C[C@]1(O)C(=O)C(C)=C[C@@H]41)O2", "note": "[RTX, resiniferatoxin, reference compound]", "values": [{"measurement": "Effect on abdominal Tb", "setting": "[6]; 150 ng/kg i.p.", "value": "readily produces hypothermia"}, {"measurement": "Decrease in Tb", "setting": "[10]; 150 ng/kg i.p.", "value": "~ 2.5 °C"}]}, {"smiles": "CC1CCC(C(C)C)C(O)C1", "note": "(stereo not drawn) [menthol, reference compound]", "values": [{"measurement": "Rise in Tb after menthol", "setting": "[7]; rats pre-infused with vehicle, 10 g of 0.5% menthol ointment epidermally", "value": "~ 1 °C"}]}, {"smiles": "Cl.Cl.Cl.Cl.Cl.Cl.N.N.N.N.N.N.N.N.N.N.N.N.N.N.[O-2].[O-2].[Ru+3].[Ru+3].[Ru+4]", "note": "[ruthenium red]", "values": [{"measurement": "IC50", "setting": "[13]", "value": 367, "unit": "nM"}, {"measurement": "IC50", "setting": "[14]", "value": 24, "unit": "nM"}]}]}
